Experiments:
[1] = test system: Enterovirus D68 strain US/Mo/14-18949; test: Virus CPE assay, Enterovirus D68 US/Mo/14-18949 in RD cells; format: cell-based; conditions: for EC50: Enterovirus D, RD cells
Method: (§1) Cells growing in 96 well plates are infected with a given virus at given low multiplicities of infection pre-determined to result in 100% cytopathic effects (CPE) in the cultures after 3-4 days incubation. Cultures are monitored daily for microscopic signs of typical CPE: rounding of cells and detachment. […] Dead cells and debris are washed out and the remaining blue stain intensity in each well is quantified by spectrophotometry at a wavelength of 590 nm (OD590) as a measurement of viability. […] Serial 2-fold dilutions of an active compound are prepared. […] Table 4 provides the results of cell-based assays with RD cells evaluating the antiviral activities of certain representative compounds of the present technology with certain strains of Enterovirus D68, namely strains Fermon (“D68/Fermon”), US/Mo/14-18949 (“D68/US/Mo/14-18949”), and US/KY/14-18953 (“D68/US/KY/14-18953”). The values indicated in the strain columns are EC50 values in μM units. The CC50 values (in μM units) for RD cells are also provided for evaluation of SI50.

[2] = test system: Echovirus 9; test: Virus CPE assay, ECHO09 in LLC cells; format: cell-based; conditions: Enterovirus B, >10 = no antiviral activity at 10 μM
[3] = test system: Poliovirus 1; test: microbe, parasite or virus in culture; format: cell-based; conditions: Enterovirus C, read-out: EC50 PV1
[4] = test system: Echovirus 25; test: Virus CPE assay, ECHO25 in LLC cells; format: cell-based; conditions: Enterovirus B, >10 = no antiviral activity at 10 μM
[5] = test system: Echovirus 6; test: Virus CPE assay, ECHO06 in LLC cells; format: cell-based; conditions: Enterovirus B, >10 = no antiviral activity at 10 μM
[6] = test system: Coxsackievirus B4; test: Virus CPE assay, CVB4 in HeLa-RW cells; format: cell-based; conditions: Enterovirus B, >10 = no antiviral activity at 10 μM
[7] = test system: Coxsackievirus B3-H3; test: Virus CPE assay, CVB3-H3 in HeLa-RW cells; format: cell-based; conditions: >10/>25 = no antiviral activity at 10 or 25 μM
[8] = test system: Echovirus 30; test: Virus CPE assay, ECHO30 in LLC cells; format: cell-based; conditions: Enterovirus B, >10 = no antiviral activity at 10 μM
[9] = test system: Echovirus 11; test: Virus CPE assay, ECHO11 in LLC cells; format: cell-based; conditions: Enterovirus B, >10 = no antiviral activity at 10 μM
[10] = test system: Coxsackievirus B2; test: Virus CPE assay, CVB2 in HeLa-RW cells; format: cell-based; conditions: Enterovirus B, >10 = no antiviral activity at 10 μM
[11] = test system: Coxsackievirus B5; test: Virus CPE assay, CVB5 in HeLa-RW cells; format: cell-based; conditions: Enterovirus B, >10 = no antiviral activity at 10 μM
[12] = Cytotoxicity (CC50) in RD cells; format: cell-based; conditions: human
Method: (§2) Each compound is initially tested against each virus at 10 μM in a virus CPE assay. A compound that is active against a virus, protecting the cells from CPE, is further evaluated for its 50% effective concentration (EC50) value and 50% cytotoxicity concentration (CC50) value. Serial 2-fold dilutions of an active compound are prepared. For EC50 value determination, a 7-point dose-response curve is constructed using a virus CPE assay and EC50 value is estimated using four parameter model or sigmoidal model. For CC50 value determination, cells are incubated with serial 2-fold dilutions of a compound for the same period as the virus CPE assay, and then cells were fixed, stained and read as in the virus CPE assay.
Table 4 provides the results of cell-based assays with RD cells evaluating the antiviral activities of certain representative compounds of the present technology with certain strains of Enterovirus D68, namely strains Fermon (“D68/Fermon”), US/Mo/14-18949 (“D68/US/Mo/14-18949”), and US/KY/14-18953 (“D68/US/KY/14-18953”). The values indicated in the strain columns are EC50 values in μM units. The CC50 values (in μM units) for RD cells are also provided for evaluation of SI50.

[13] = test system: Echovirus 7; test: Virus CPE assay, ECHO07 in LLC cells; format: cell-based; conditions: Enterovirus B, >10 = no antiviral activity at 10 μM
[14] = test system: LLC cells; test: Cytotoxicity (CC50) in LLC cells; format: cell-based; conditions: concentration that reduces host cell viability by 50%
Method: as §2
(§3) Table 3 provides the compound concentration in μM units that reduces cell viability of the host cell by 50% (CC50) for certain compounds of the present technology for HeLa-RW and LLC cells. Blank cells indicate that the cytotoxicity assessment is not yet complete.

[15] = test system: Poliovirus 3; test: microbe, parasite or virus in culture; format: cell-based; conditions: Enterovirus C, read-out: EC50 PV3
[16] = test system: Enterovirus D68 strain US/KY/14-18953; test: Virus CPE assay, Enterovirus D68 US/KY/14-18953 in RD cells; format: cell-based; conditions: Enterovirus D
Method: as §1

[17] = test system: Coxsackievirus A9; test: Virus CPE assay, COX A9 in LLC cells; format: cell-based; conditions: Enterovirus B, >10 = no antiviral activity at 10 μM
[18] = test system: HeLa-RW cells; test: Cytotoxicity (CC50) in HeLa-RW cells; format: cell-based; conditions: concentration that reduces host cell viability by 50%
Method: as §2, §3

[19] = test system: Enterovirus D68 strain Fermon; test: Virus CPE assay, Enterovirus D68 Fermon in RD cells; format: cell-based; conditions: Enterovirus D
Method: as §1

[20] = test system: Coxsackievirus B1; test: Virus CPE assay, CVB1 in HeLa-RW cells; format: cell-based; conditions: Enterovirus B, >10 = no antiviral activity at 10 μM
[21] = test system: Enterovirus 71; test: Virus CPE assay, EV71 in LLC cells; format: cell-based; conditions: Enterovirus A, >10 = no antiviral activity at 10 μM
[22] = test system: Enterovirus D68; test: Antiviral cell-based assays, summary for at least one strain; conditions: Enterovirus D, not named, read-out: EC50 against at least one strain
Method: as §1

[23] = Cytotoxicity (CC50) in LLC cells; format: cell-based; conditions: LLC cells; concentration that reduces host cell viability by 50%
Method: as §2, §3

Work on `CC(C)n1ncc2c(C(=O)Nc3ccccc3F)cc(-c3cccs3)nc21` [JX-001, reference compound] yielded an EC50 [1] of 0.33 ± 0.05 µM, an EC50 [2] of 2.1 ± 1.2 µM and an EC50 [3] of 7 µM. For the same compound, the EC50 [4] was 3 µM, the EC50 [5] was 2.3 ± 0.9 µM and the EC50 [6] was 2.3 µM. The EC50 [7] was 1.4 ± 0.6 µM, the EC50 [8] was 1.2 µM and the EC50 [9] was 1.5 ± 0.4 µM. It also gave an EC50 [10] of 2.8 ± 0.4 µM, an EC50 [11] of 2.3 µM and a CC50 [12] of 200 µM. The EC50 [13] was 2.4 µM, the CC50 [14] was 50 µM and the EC50 [15] was 7 µM. For the same compound, the EC50 [16] was 0.5 ± 0.17 µM, the EC50 [17] was 2.6 ± 0.9 µM and the CC50 [18] was 12.5 µM. The EC50 [19] was 0.35 ± 0.05 µM, the EC50 [20] was 2.4 ± 0.2 µM and the EC50 [21] was 2.3 ± 1.2 µM.

For `CC(C)n1nnc2c(C(=O)Nc3ccc(F)cc3)cc(-c3cccs3)nc21` [JX-035], the EC50 [2] was over 10 µM, the EC50 [3] was over 10 µM and the EC50 [4] was over 10 µM. The EC50 [5] was over 10 µM, the EC50 [6] was over 10 µM and the EC50 [7] was over 10 µM. It also gave an EC50 [8] of over 10 µM, an EC50 [9] of over 10 µM and an EC50 [10] of over 10 µM. It also gave an EC50 [11] of over 10 µM, an EC50 [13] of over 10 µM and an EC50 [15] of over 10 µM. It also gave an EC50 [17] of over 10 µM, an EC50 [20] of over 10 µM and an EC50 [21] of over 10 µM.

With `CC(C)n1ncc2c(C(=O)Nc3ccc(F)cc3)nc(-c3cccs3)nc21` [JX-036] the EC50 [2] was over 10 µM, the EC50 [3] was over 10 µM and the EC50 [4] was over 10 µM. The EC50 [5] was over 10 µM, the EC50 [6] was over 10 µM and the EC50 [7] was over 10 µM. It also gave an EC50 [8] of over 10 µM, an EC50 [9] of over 10 µM and an EC50 [10] of over 10 µM. The EC50 [11] was over 10 µM, the EC50 [13] was over 10 µM and the EC50 [15] was over 10 µM. For the same compound, the EC50 [17] was over 10 µM, the EC50 [20] was over 10 µM and the EC50 [21] was over 10 µM.

For `CC(C)n1ccc2c(C(=O)Nc3ccc(F)cc3)cc(-c3cccs3)nc21` [JX-037], the SI ([1]; Enterovirus D68/US/Mo/14-18949, >200/0.57) was “over 350”, the EC50 [1] was 0.57 ± 0.15 µM and the EC50 [3] was over 25 µM. It also gave an EC50 [6] of 3.1 ± 0.1 µM, an EC50 [7] of 3.1 ± 0.1 µM and an EC50 [22] of under 1 µM. For the same compound, the EC50 [10] was 3.6 ± 0.6 µM, the EC50 [11] was 2.7 ± 0.6 µM and the CC50 [12] was over 200 µM. It also gave a CC50 [23] of 100 µM, an EC50 [15] of over 25 µM and an EC50 [16] of 1.1 ± 0.3 µM. For the same compound, the EC50 [19] was 0.86 ± 0.31 µM, the EC50 [20] was 3.6 ± 0.6 µM and the EC50 [21] was 2.2 µM.

`CC(C)n1ccc2c(C(=O)Nc3cccnc3)cc(-c3cccs3)nc21` [JX-062] gave an EC50 [1] of 0.13 ± 0.03 µM, an EC50 [2] of 0.4 µM and an EC50 [3] of over 10 µM. The EC50 [6] was 1.2 µM, the EC50 [7] was 1.3 µM and the EC50 [9] was 1.2 µM. It also gave an EC50 [22] of under 1 µM, an EC50 [10] of 1.2 µM and an EC50 [11] of 1.2 µM. The CC50 [12] was 25 µM, the CC50 [14] was 25 µM and the EC50 [15] was over 10 µM. It also gave an EC50 [16] of 0.26 ± 0.07 µM, a CC50 [18] of 18 µM and an EC50 [19] of 0.16 ± 0.03 µM. The EC50 [20] was 1.2 µM and the EC50 [21] was 0.8 µM.

`CC(C)n1ccc2c(C(=O)Nc3ccncc3)cc(-c3cccs3)nc21` [JX-063] showed an EC50 [3] of over 10 µM, an EC50 [6] of over 10 µM and an EC50 [7] of over 10 µM. For the same compound, the EC50 [10] was over 10 µM, the EC50 [11] was over 10 µM and the EC50 [15] was over 10 µM. The EC50 [20] was over 10 µM.

Work on `CC(C)n1ccc2c(C(=O)Nc3ccccn3)cc(-c3cccs3)nc21` [JX-072] yielded an EC50 [3] of over 10 µM, an EC50 [7] of 2.2 ± 0.4 µM and an EC50 [22] of under 1 µM. It also gave an EC50 [10] of 2.33 µM, a CC50 [12] of 25 µM and an EC50 [13] of 3 µM. The CC50 [14] was over 200 µM, the EC50 [15] was over 10 µM and the EC50 [16] was 0.6 µM. For the same compound, the CC50 [18] was 18.8 µM, the EC50 [19] was under 0.4 µM and the EC50 [20] was 1.56 µM. The EC50 [21] was 1.2 µM.

From US11180498B2, “Substituted pyrrolo[2,3-b]pyridines, pyrazolo[3,4-d]pyrimidines and [1,2,3]triazolo[4,5-b]pyridines as potent antivirals” (The Regents of the University of California, priority 2017, dated 2021)
